Assay results: publication PMC11714206, “Massively Parallel Screening of Toll/Interleukin‐1 Receptor (TIR)‐Derived Peptides Reveals Multiple Toll‐Like Receptors (TLRs)‐Targeting Immunomodulatory Peptides” (Advanced Science, 2024)

Biological target: T1, MyD88^TIR (Homo sapiens, UniProt Q99836)
T1 construct: MyD88 (residues 148–296); 6xHis; made in house; host or cells: E. coli BL21 (DE3)
Test: T‐Surf phage library (P8 and P3) selection against MyD88^TIR, four rounds, NGS read counts
Format: binding
Conditions: for Population: 4th round of selection against MyD88 TIR, share of NGS reads; for P8_MyD88 Rank (after) / P8_MyD88 Rank (before): P8 library; for P3_MyD88 Rank (after) / P3_MyD88 Rank (before): P3 library
In short: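 Read counts come from NGS of phage pools enriched over four selection rounds on the plate‐coated TIR domain (5 µg mL^−1). Each round: 1 h phage binding at room temperature after 0.2% BSA blocking, Tween washes, acid elution, amplification in E. coli TG1 with M13KO7 helper.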

[1] = P3_MyD88 pool: P3 T-Surf phage library
[2] = P8_MyD88: rank by NGS read count after grouping
[3] = P8_MyD88: rank by NGS read count before grouping
[4] = selection against MyD88 TIR, rank by count after grouping
[5] = selection against MyD88 TIR, rank by count before grouping
[6] = P3_MyD88: rank by count after grouping
[7] = P3_MyD88: rank by count before grouping
[8] = P8_MyD88: rank by count after grouping
[9] = P8_MyD88: rank by count before grouping
[10] = selection against MyD88, rank by count after grouping
[11] = selection against MyD88, rank by count before grouping
[12] = selection against MyD88, rank after grouping
[13] = selection against MyD88, rank before grouping
[14] = P8_MyD88 pool: P8 T-Surf phage library
[15] = 4R selection against MyD88, rank after grouping
[16] = 4R selection against MyD88, rank before grouping

T1 sequence (Q99836 148-296): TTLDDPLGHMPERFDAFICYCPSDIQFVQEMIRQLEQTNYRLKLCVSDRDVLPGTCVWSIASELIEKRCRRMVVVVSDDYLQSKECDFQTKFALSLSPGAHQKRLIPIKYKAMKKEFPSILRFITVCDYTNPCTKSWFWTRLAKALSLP

In the case of DHHLDLPRGKAIKREILG, the Population [1] is reported as 0.00437%.

In the case of LGYQWIAGEYFVGIED, the “Rank (after)” value [2] is reported as 1021 and the “Rank (before)” value [3] is reported as 3320.

For PQDLEWLYERLVRLIL, the “P8_MyD88 Rank (after)” value [4] was 287 and the “P8_MyD88 Rank (before)” value [5] was 3472.

With YAFTGHPPRYLVQRGV the “Rank (after)” value [6] was 433 and the “Rank (before)” value [7] was 1536.

In the case of WPQDPQDLGWFYERLE, the “Rank (after)” value [8] is reported as 416 and the “Rank (before)” value [9] is reported as 899.

In the case of SSFREDLWRLLELSKK, the Population [1] is reported as 0.00437%.

With SGQAVTEDKLGWLSNP the “P8_MyD88 Rank (after)” value [10] was 682 and the “P8_MyD88 Rank (before)” value [11] was 1660.

With SSFRECLWSLPELSKK the “P3_MyD88 Rank (after)” value [10] was 699 and the “P3_MyD88 Rank (before)” value [11] was 3138.

In the case of DPQDLVWFYERPVSIF, the “Rank (after)” value [2] is reported as 909 and the “Rank (before)” value [3] is reported as 2712.

In the case of DPQDLDWFYERLFSQT, the “P8_MyD88 Rank (after)” value [4] is reported as 269 and the “P8_MyD88 Rank (before)” value [5] is reported as 2858.

With YASSSWALNELLEILDAKETM the “Rank (after)” value [8] was 456 and the “Rank (before)” value [9] was 1901.

LVAHEISKKKKIFATI gave a Population [1] of 0.00291%.

For VTSSWALEELRHIMEL, the “Rank (after)” value [2] was 947 and the “Rank (before)” value [3] was 2269.

For YLRADDNDYYWVTHVLLRHL, the “Rank (after)” value [2] was 983 and the “Rank (before)” value [3] was 2070.

In the case of YLQWGYPCFWDRLRFA, the “P3_MyD88 Rank (after)” value [4] is reported as 251 and the “P3_MyD88 Rank (before)” value [5] is reported as 1559.

LVAQEISKIKTMLATT was tested, and the “P3_MyD88 Rank (after)” value [12] was 561 and the “P3_MyD88 Rank (before)” value [13] was 2317.

DPQDLELFYEQLVRPF was tested, and the “Rank (after)” value [8] was 459 and the “Rank (before)” value [9] was 2844.

In the case of YLQDLDWFYERLVSLF, the “Rank (after)” value [8] is reported as 478 and the “Rank (before)” value [9] is reported as 2080.

With DWVWDYLLPNLEGPG the “P8_MyD88 Rank (after)” value [4] was 260 and the “P8_MyD88 Rank (before)” value [5] was 1038.

With NQWRNALTAAANLIGR the “P3_MyD88 Rank (after)” value [12] was 532 and the “P3_MyD88 Rank (before)” value [13] was 3499.

DPQELVWRYERLVSLF was tested, and the “Rank (after)” value [2] was 962 and the “Rank (before)” value [3] was 3010.

With KEVEGWRDALYEAANLS the “P3_MyD88 Rank (after)” value [10] was 684 and the “P3_MyD88 Rank (before)” value [11] was 3620.

SSFREGLWRLLELSEK gave a Population [1] of 0.00349%.

In the case of FIDFLFDAFETKGIFV, the “Rank (after)” value [8] is reported as 103, the “Rank (before)” value [9] is reported as 107 and the Population [14] is reported as 0.0216%.

In the case of LGYHWVDWEDLLSIEE, the “P8_MyD88 Rank (after)” value [10] is reported as 730 and the “P8_MyD88 Rank (before)” value [11] is reported as 3235.

For AHDELWVLRYLLPTLE, the “P8_MyD88 Rank (after)” value [4] was 205 and the “P8_MyD88 Rank (before)” value [5] was 304.

DPQELEWFYERLVSLF was tested, and the “Rank (after)” value [8] was 163 and the “Rank (before)” value [9] was 745.

For FFSGFREQEDFISKRW, the “P8_MyD88 Rank (after)” value [10] was 681 and the “P8_MyD88 Rank (before)” value [11] was 1297.

In the case of HQLSVDIQGYALKAGV, the “P3_MyD88 Rank (after)” value [10] is reported as 679 and the “P3_MyD88 Rank (before)” value [11] is reported as 2807.

With YASSSWYLAELVHMPW the “Rank (after)” value [2] was 989 and the “Rank (before)” value [3] was 1854.

GFIDNLYQALANMGIH was tested, and the “Rank (after)” value [8] was 122, the “Rank (before)” value [9] was 129 and the Population [14] was 0.0143%.

For LGYQCIDWEYFVDIED, the “P8_MyD88 Rank (after)” value [15] was 644 and the “P8_MyD88 Rank (before)” value [16] was 3332.

For DPQDLDWFFERLVSLL, the “Rank (after)” value [8] was 117 and the “Rank (before)” value [9] was 707.

In the case of LGYQLIDWEYFVGIEN, the “Rank (after)” value [2] is reported as 937 and the “Rank (before)” value [3] is reported as 3319.

PQEREWFYERLVSLIL was tested, and the “Rank (after)” value [2] was 991 and the “Rank (before)” value [3] was 3499.

In the case of LVYHWIDWEYFVGIED, the Population [14] is reported as 0.0108%.

For DPQVLDWYYERLVRLF, the “P8_MyD88 Rank (after)” value [15] was 626 and the “P8_MyD88 Rank (before)” value [16] was 2646.

In the case of SSFREGL*RLLELSKK, the Population [1] is reported as 0.00466%.

In the case of WALDELRKNLYAIETM, the “P8_MyD88 Rank (after)” value [10] is reported as 701 and the “P8_MyD88 Rank (before)” value [11] is reported as 1502.

With LSRVPSVHEFRGFVGV the “P3_MyD88 Rank (after)” value [12] was 573 and the “P3_MyD88 Rank (before)” value [13] was 2392.

With TEPADTAFWDALWNKL the “Rank (after)” value [8] was 188 and the “Rank (before)” value [9] was 237.

For NQWRNALTAAANLSLS, the “P3_MyD88 Rank (after)” value [15] was 675 and the “P3_MyD88 Rank (before)” value [16] was 3507.

With YQWRNALSAAANLCGW the “P3_MyD88 Rank (after)” value [12] was 569 and the “P3_MyD88 Rank (before)” value [13] was 1617.

With IWVWDFYNSQLEGPMG the “P8_MyD88 Rank (after)” value [10] was 753 and the “P8_MyD88 Rank (before)” value [11] was 3609.

With LGYHWTDWEYFVGIEA the “Rank (after)” value [8] was 429 and the “Rank (before)” value [9] was 3305.

EWVWDYLLPNLESPAG was tested, and the “Rank (after)” value [8] was 437 and the “Rank (before)” value [9] was 3162.

With LKWGEPYCWSKLRYAM the “Rank (after)” value [6] was 127 and the “Rank (before)” value [7] was 2450.

In the case of EWIREQLRPALEKAGKL, the “Rank (after)” value [6] is reported as 144 and the “Rank (before)” value [7] is reported as 649.

For YITRFDDIQQIELFWD, the “P8_MyD88 Rank (after)” value [10] was 688 and the “P8_MyD88 Rank (before)” value [11] was 2121.

In the case of LVAHELLKKMKIFATI, the “P3_MyD88 Rank (after)” value [4] is reported as 232 and the “P3_MyD88 Rank (before)” value [5] is reported as 2275.
